Experimental findings from patent publication US9527859B2, “Amidopyridine derivative and use thereof” (Mitsubishi Tanabe Pharma Corporation, priority 2012, dated 2016) are described below.

Structures are written as SMILES.

The test relates to production of IL-17 in mouse splenocytes stimulated by recombinant mouse interleukin-23. Nature of the test: Production of IL-17 induced when mouse splenocytes were stimulated by rm-IL-23 (ELISA). The class given is cell-based. The conditions noted are these: Splenocyte, inhibition of IL-17 production, rm-IL-23 1 nmol/L, 72 hours. The procedure: Effect on Production of IL-17 Induced when Mouse Splenocytes were Stimulated by Recombinant Mouse Interleukin-23 (rm-IL-23)
RPMI1640 media (Sigma-Aldrich) were used as a medium, to which 50 units/mL penicillin G potassium/50 μg/mL streptomycin (Gibco) and […] 2-mercaptoethanol (Sigma-Aldrich) were added, and then thereto was added 10% of fetal calf serum (FCS; Cell Culture Technology) which was treated at 56° C. for 30 minutes to be inactivated, and the mixture was used in the Test. The test compound was dissolved in dimethylsulfoxide and then diluted with 10% FCS-containing RPMI1640 medium to a desired concentration to be used. The spleens were aseptically taken out from 6 to 7 week-old male DBA/1J mice (Charles River Japan, Inc.) and a single cell suspension of splenocytes was prepared, which was hemolyzed by hypotonic treatment with a mixed solution of 0.83% aqueous solution of ammonium chloride and Tris-HCl buffer of pH 7.65 (9:1). A cell suspension prepared by using 10% FCS-containing RPMI1640 medium was added to a flat-bottomed 96 well microtestplate (Coaster) at 2×10^5 cells/well. Thereto were added test compounds and rm-IL-23 (R&D systems) were diluted with a medium to 1 to 1,000 nmol/L and 1 nmol/L of the final concentration, respectively, and the mixture was cultured at 37° C., 5% carbon dioxide and 95% air for 72 hours. After completion of the culture, culture supernatant was sampled and production amounts of IL-17 therein were determined by ELISA method. After sampling the supernatant, WST-8 (Seikagaku Corporation) was added at 10 μl/well and cultured at 37° C., 5% carbon dioxide and 95% air for 4 hours. Then, absorbance (O.D.: Optical Density) at 450 nm was measured by a microplate reader and the value was adopted as an index of cell survivability. An inhibition rate was calculated according to the following formula on the basis of an average of production amounts of IL-17 and O.D. values of the well containing a test compound of each concentration. Inhibition (%)=(1−(Average value of well with addition of test compound)/(Average value of well without addition of test compound))×100
Based on the dose-response curve obtained by plotting the inhibition rate in the longitudinal axis and the concentration in the horizontal axis, the concentration of the compound which inhibits the level to 50% of the value of the control group (IC50) (nmol/L) was determined by linear regression analysis.
In general terms: An ELISA detects its analyte on a solid surface through an enzyme-linked reagent.
For the compound `Cc1c(C(=O)Nc2cnc(N3CCC(O)CC3)c(C3CC3)c2)cnn1-c1ccc(Cl)cc1Cl` [Example 9, N-[5-cyclopropyl-6-(4-hydroxypiperidin-1-yl)pyridin-3-yl]-1-(2,4-dichlorophenyl)-5-methyl-1H-pyrazole-4-carboxamide], the half-inhibitory concentration (IC50) (usually the concentration that gives 50% inhibition) turned out to be 331 nM. For the compound `Cc1cc(NC(=O)c2cnn(-c3ccc(C(F)(F)F)cc3)c2C)cnc1N1CCC(O)CC1` [Example 15, N-[6-(4-hydroxypiperidin-1-yl)-5-methylpyridin-3-yl]-5-methyl-1-[4-(trifluoromethyl)phenyl]-1H-pyrazole-4-carboxamide], the IC50 was 293 nM.

Turning to `COC1CCN(c2ncc(NC(=O)c3cnn(-c4ccc(Cl)cc4)c3C)cc2C)CC1` [Example 16, 1-(4-chlorophenyl)-N-[6-(4-methoxypiperidin-1-yl)-5-methylpyridin-3-yl]-5-methyl-1H-pyrazole-4-carboxamide], the IC50 was 264 nM. Consider `CC(=O)OC1CCN(c2ncc(NC(=O)c3cnn(-c4ccc(Cl)cc4)c3C)cc2C#N)CC1` [Example 19, acetic acid (1-{5-[1-(4-chlorophenyl)-5-methyl-1H-pyrazole-4-carboxamide]-3-cyanopyridin-2-yl}piperidin-4-yl)ester], for which the IC50 stood at 213 nM. Under `N#Cc1cc(NC(=O)c2cnn(-c3ccc(Cl)cc3)c2C2CC2)cnc1N1CCC(CCO)CC1` [Example 22, 1-(4-chlorophenyl)-N-{5-cyano-6-[4-(2-hydroxyethyl)piperidin-1-yl]pyridin-3-yl}-5-cyclopropyl-1H-pyrazole-4-carboxamide] stands 194 nM.

In the case of `Cc1c(C(=O)Nc2cnc(N3CCC(O)CC3)c(C#N)c2)cnn1-c1ccc(C(C)(C)C)cc1` [Example 23, 1-(4-tert-butylphenyl)-N-[5-cyano-6-(4-hydroxypiperidin-1-yl)pyridin-3-yl]-5-methyl-1H-pyrazole-4-carboxamide], the IC50 amounted to 193 nM.

For the compound `Cc1cc(NC(=O)c2ccn(-c3ccc(C#N)cn3)c2)cnc1N1CCC(C(C)(C)F)CC1` [Example 24, 1-(5-cyanopyridin-2-yl)-N-{6-[4-(1-fluoro-1-methylethyl)piperidin-1-yl]-5-methylpyridin-3-yl}-1H-pyrrole-3-carboxamide], the IC50 amounted to 180 nM.

For `CC(=O)OCCC1CCN(c2ncc(NC(=O)c3cnn(-c4ccc(F)cc4)c3C)cc2C#N)CC1` [Example 25, acetic acid [2-(1-{3-cyano-5-[1-(4-fluorophenyl)-5-methyl-1H-pyrazole-4-carboxamide]pyridin-2-yl}piperidin-4-yl)ethyl]ester], the IC50 came out at 161 nM. Under `Cc1cc(NC(=O)c2cnn(-c3ccccn3)c2C)cnc1N1CCC(CC(C)(C)O)CC1` [Example 26, N-{6-[4-(2-hydroxy-2-methylpropyl)piperidin-1-yl]-5-methylpyridin-3-yl}-5-methyl-1-(pyridin-2-yl)-1H-pyrazole-4-carboxamide] stands 173 nM. Under `Cc1cc(NC(=O)c2cnn(-c3ccc(F)c(F)c3)c2C)cnc1N1CCC(C(C)O)CC1` (stereo not drawn) [Example 27, 1-(3,4-difluorophenyl)-N-{6-[4-(1-hydroxyethyl)piperidin-1-yl]-5-methylpyridin-3-yl}-5-methyl-1H-pyrazole-4-carboxamide] stands 171 nM; under `Cc1cc(NC(=O)c2cnn(-c3ccc(F)cc3)c2C)cnc1N1CCC(C(C)O)CC1` (stereo not drawn) [Example 28, 1-(4-fluorophenyl)-N-{6-[4-(1-hydroxyethyl)piperidin-1-yl]-5-methylpyridin-3-yl}-5-methyl-1H-pyrazole-4-carboxamide], 170 nM.

On to `Cc1c(C(=O)Nc2cnc(N3CCC(=O)CC3)c(C#N)c2)cnn1-c1ccc(Cl)cc1` [Example 29, 1-(4-chlorophenyl)-N-[5-cyano-6-(4-oxopiperidin-1-yl)pyridin-3-yl]-5-methyl-1H-pyrazole-4-carboxamide], for which the IC50 came to 168 nM. On to `Cc1c(C(=O)Nc2cnc(N3CCC(CCO)CC3)c(C#N)c2)cnn1-c1ccc(F)cc1` [Example 30, N-{5-cyano-6-[4-(2-hydroxyethyl)piperidin-1-yl]pyridin-3-yl}-1-(4-fluorophenyl)-5-methyl-1H-pyrazole-4-carboxamide], for which the IC50 was determined as 175 nM. As for `COCCC1CCN(c2ncc(NC(=O)c3cnn(-c4ccc(C(F)(F)F)cn4)c3C)cc2C)CC1` [Example 31], the IC50 turned out to be 158 nM.

On to `Cc1ccc(-n2ncc(C(=O)Nc3cnc(N4CCC(C(C)(C)F)CC4)c(C)c3)c2C)cc1` [Example 32, N-{6-[4-(1-fluoro-1-methylethyl)piperidin-1-yl]-5-methylpyridin-3-yl}-5-methyl-1-(4-methylphenyl)-1H-pyrazole-4-carboxamide], for which the half-inhibitory concentration (IC50) came out at 155 nM. On to `COCC1CCN(c2ncc(NC(=O)c3cnn(-c4ccc(C(F)(F)F)cc4)c3C)cc2C)CC1` [Example 33, N-{6-[4-(1-methoxymethyl)piperidin-1-yl]-5-methylpyridin-3-yl}-5-methyl-1-[4-(trifluoromethyl)phenyl]-1H-pyrazole-4-carboxamide], for which the IC50 stood at 153 nM. Regarding `Cc1cc(NC(=O)c2cnn(-c3ccc(F)cc3)c2C)cnc1N1CCC(C(C)(C)F)CC1` [Example 34, N-{6-[4-(1-fluoro-1-methylethyl)piperidin-1-yl]-5-methylpyridin-3-yl}-1-(4-fluorophenyl)-5-methyl-1H-pyrazole-4-carboxamide], the IC50 was 151 nM.

On to `COc1ccc(-n2ncc(C(=O)Nc3cnc(N4CCC(C(C)(C)F)CC4)c(C)c3)c2C)cc1` [Example 35, N-{6-[4-(1-fluoro-1-methylethyl)piperidin-1-yl]-5-methylpyridin-3-yl}-1-(4-methoxyphenyl)-5-methyl-1H-pyrazole-4-carboxamide], for which the IC50 amounted to 150 nM. With `Cc1c(C(=O)Nc2cnc(N3CCC(O)CC3)c(Cl)c2)cnn1-c1ccc(Cl)cc1` [Example 36, N-[5-chloro-6-(4-hydroxypiperidin-1-yl)pyridin-3-yl]-1-(4-chlorophenyl)-5-methyl-1H-pyrazole-4-carboxamide] the figure was 142 nM; with `N#Cc1cc(NC(=O)c2ccn(-c3ccc(F)cc3)c2)cnc1N1CCC(CCO)CC1` [Example 37, N-{5-cyano-6-[4-(2-hydroxyethyl)piperidin-1-yl]pyridin-3-yl}-1-(4-fluorophenyl)-1H-pyrrole-3-carboxamide], 140 nM; with `Cc1cc(NC(=O)c2cnn(-c3ccc(Cl)cn3)c2C)cnc1N1CCC(C(C)(C)F)CC1` [Example 38, 1-(5-chloropyridin-2-yl)-N-{6-[4-(1-fluoro-1-methylethyl)piperidin-1-yl]-5-methylpyridin-3-yl}-5-methyl-1H-pyrazole-4-carboxamide], 140 nM. With `CC(=O)OCCC1CCN(c2ncc(NC(=O)c3cnn(-c4ccc(Cl)cc4)c3C)cc2C#N)CC1` [Example 40, acetic acid [2-(1-{5-[1-(4-chlorophenyl)-5-methyl-1H-pyrazole-4-carboxamide]-3-cyanopyridin-2-yl}piperidin-4-yl)ethyl]ester], the IC50 was 116 nM. Under `Cc1cc(NC(=O)c2cnn(-c3ccc(Cl)cc3)c2C)cnc1N1CCC(C(C)(C)F)CC1` [Example 41, 1-(4-chlorophenyl)-N-{6-[4-(1-fluoro-1-methylethyl)piperidin-1-yl]-5-methylpyridin-3-yl}-5-methyl-1H-pyrazole-4-carboxamide] stands 112 nM; under `Cc1c(C(=O)Nc2cnc(N3CCC(CCO)CC3)c(C3CC3)c2)cnn1-c1ccc(Cl)cc1` [Example 42, 1-(4-chlorophenyl)-N-{5-cyclopropyl-6-[4-(2-hydroxyethyl)piperidin-1-yl]pyridin-3-yl}-5-methyl-1H-pyrazole-4-carboxamide], 106 nM; under `Cc1cc(NC(=O)c2ccn(-c3ccc(C#N)cn3)c2)cnc1N1CCC(C(C)(C)O)CC1` [Example 46, 1-(5-cyanopyridin-2-yl)-N-{6-[4-(1-hydroxy-1-methylethyl)piperidin-1-yl]-5-methylpyridin-3-yl}-1H-pyrrole-3-carboxamide], 60.8 nM. Under `Cc1cc(NC(=O)c2cnn(-c3ncc(Cl)cc3Cl)c2C)cnc1N1CCC(C(C)(C)F)CC1` [Example 48, 1-(3,5-dichloropyridin-2-yl)-N-{6-[4-(1-fluoro-1-methylethyl)piperidin-1-yl]-5-methylpyridin-3-yl}-5-methyl-1H-pyrazole-4-carboxamide] stands 56.4 nM. With `Cc1cc(NC(=O)c2cnn(-c3ccccc3)c2C)cnc1N1CCC(CC(C)(C)O)CC1` [Example 50, N-{6-[4-(2-hydroxy-2-methylpropyl)piperidin-1-yl]-5-methylpyridin-3-yl}-5-methyl-1-phenyl-1H-pyrazole-4-carboxamide] the figure was 54.1 nM.
